From ChEMBL document CHEMBL1150116, “Huperzine R, a novel 15-carbon Lycopodium alkaloid from Huperzia serrata” (J Nat Prod, 2002)

Molecular target: Acetylcholinesterase (Homo sapiens) (UniProt P22303)
Assay: Inhibition of AChE at 95 umol

Acetylcholinesterase (Homo sapiens), sequence (P22303 whole entry): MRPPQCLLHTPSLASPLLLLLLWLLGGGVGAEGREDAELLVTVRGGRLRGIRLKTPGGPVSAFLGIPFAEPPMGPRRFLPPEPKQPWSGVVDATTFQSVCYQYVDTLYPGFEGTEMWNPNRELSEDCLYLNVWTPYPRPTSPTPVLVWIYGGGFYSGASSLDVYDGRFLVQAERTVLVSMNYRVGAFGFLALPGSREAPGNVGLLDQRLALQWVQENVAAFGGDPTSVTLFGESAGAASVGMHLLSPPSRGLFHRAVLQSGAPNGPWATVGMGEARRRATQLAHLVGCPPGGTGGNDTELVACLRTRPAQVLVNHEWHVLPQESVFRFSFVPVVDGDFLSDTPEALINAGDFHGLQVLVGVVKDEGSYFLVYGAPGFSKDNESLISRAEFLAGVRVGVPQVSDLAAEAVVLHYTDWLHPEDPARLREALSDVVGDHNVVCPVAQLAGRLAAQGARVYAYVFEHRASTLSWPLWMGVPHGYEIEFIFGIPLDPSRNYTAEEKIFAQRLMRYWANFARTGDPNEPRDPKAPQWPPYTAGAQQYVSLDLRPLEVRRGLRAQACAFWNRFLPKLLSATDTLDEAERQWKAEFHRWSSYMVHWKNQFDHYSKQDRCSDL

C[C@H]1CC(=O)N2CCCC3=C(C1)C(=O)O[C@H]3CCC2
inhibition: 27%
